From patent US20240166646A1, “1H-PYRROLO[2,3-B]PYRIDINE DERIVATIVES AS BCL-2 INHIBITORS FOR THE TREATMENT OF NEOPLASTIC AND AUTOIMMUNE DISEASES” (Newave Pharmaceutical Inc., priority 2020, published 2024)
Counter-ions that a name gives are not always drawn.

Target: Bcl-2 (Homo sapiens (Human), UniProt P10415)
Experiment: Bcl-2 competition binding (fluorescence polarization) assay
Settings: fluorescein labeled BH3 peptide 15 nM, Bcl-2 protein 30 nM, 3 hours of incubation at room temperature
Experimental: Biological Example 1: Bcl-2 Competition Binding (Fluorescence Polarization) Assay
The fluorescence-labeled 23 amino acid peptide BH3 was purchased from CalBiochem ([…]). […] This binding assay was performed in 96-well plate and with each assay contained 15 and 30 nM of labeled peptide and purified Bcl-2 protein (purchased from R&D Systems, Inc). The assay buffer contained 20 mM Hepes (pH 7.0), 50 mM KCl, 5 mM MgCl2, 20 mM Na2MoO4, 0.1 mg/mi Bovine Gamma Globulin and 0.01% NP40. Compounds were diluted in DMS0 and added to the final assay with concentration range from 20 μM to 2 nM. The polarization degree (mP) value was determined by BioTek Synergy II with background subtraction after 3 hours of incubation at room temperature. IC50 was calculated using Prism software with sigmoidal dose-response curve fitting. ABT-737 was used as reference compound. Such assays, carried out with a range of doses of test compounds, allowed the determination of an approximate IC50 value.

Chain of Bcl-2 (P10415 whole entry): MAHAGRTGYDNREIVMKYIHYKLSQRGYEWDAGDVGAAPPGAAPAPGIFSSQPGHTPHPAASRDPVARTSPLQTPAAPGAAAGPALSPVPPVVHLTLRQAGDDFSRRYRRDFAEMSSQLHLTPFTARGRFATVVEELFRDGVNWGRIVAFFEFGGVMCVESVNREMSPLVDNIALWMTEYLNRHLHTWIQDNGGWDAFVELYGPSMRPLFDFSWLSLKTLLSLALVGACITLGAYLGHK

Structure (SMILES)	IC50 [nM]
O=C(NS(=O)(=O)c1ccc(NCC2CCOCC2)c([N+](=O)[O-])c1)c1ccc(N2CCC3(CC2)CC(N2CCC[C@H]2c2ccccc2NCC(F)(F)F)C3)cc1N1c2cc3cc[nH]c3nc2O[C@@H]2COC[C@H]21 [Example 27, 2-[(11R,15S)-13,16-dioxa-2,4,10-triazatetracyclo[7.7.0.0^{3,7}.0^{11,15}]hexadeca-1(9),2,5,7-tetraen-10-yl]-N-{3-nitro-4-[(oxan-4-ylmethyl)amino]benzenesulfonyl}-4-{2-[(2S)-2-{2-[(2,2,2-trifluoroethyl)amino]phenyl}pyrrolidin-1-yl]-7-azaspiro[3.5]nonan-7-yl}benzamide]	1.2
O=C(NS(=O)(=O)c1ccc(NCC2CCOCC2)c([N+](=O)[O-])c1)c1ccc(N2CCC3(CC2)CC(N2CCC[C@H]2c2ccccc2C(F)(F)F)C3)cc1N1c2cc3cc[nH]c3nc2O[C@@H]2COC[C@H]21 [Example 15, 2-[(11R,15S)-13,16-dioxa-2,4,10-triazatetracyclo[7.7.0.0^{3,7}.0^{11,15}]hexadeca-1(9),2,5,7-tetraen-10-yl]-N-{3-nitro-4-[(oxan-4-ylmethyl)amino]benzenesulfonyl}-4-{2-[(2S)-2-[2-(trifluoromethyl)phenyl]pyrrolidin-1-yl]-7-azaspiro[3.5]nonan-7-yl}benzamide hydrochloride]	0.2
O=C(NS(=O)(=O)c1ccc(NCC2CCOCC2)c([N+](=O)[O-])c1)c1ccc(N2CCC3(CC2)CC(N2CCC[C@H]2c2ccccc2-c2ccccn2)C3)cc1N1c2cc3cc[nH]c3nc2O[C@@H]2COC[C@H]21 [Example 18, 2-[(11R,15S)-13,16-dioxa-2,4,10-triazatetracyclo[7.7.0.0^{3,7}.0^{11,15}]hexadeca-1(9),2,5,7-tetraen-10-yl]-N-{3-nitro-4-[(oxan-4-ylmethyl)amino]benzenesulfonyl}-4-{2-[(2S)-2-[2-(pyridin-2-yl)phenyl]pyrrolidin-1-yl]-7-azaspiro[3.5]nonan-7-yl}benzamide]	0.42
O=C(NS(=O)(=O)c1ccc(NCC2CCOCC2)c([N+](=O)[O-])c1)c1ccc(N2CCC3(CC2)CC(N2CCC[C@H]2c2ccccc2)C3)cc1N1c2cc3cc[nH]c3nc2O[C@@H]2COC[C@H]21 [Example 12, 2-[(11R,15S)-13,16-dioxa-2,4,10-triazatetracyclo[7.7.0.0^{3,7}.0^{11,15}]hexadeca-1(9),2,5,7-tetraen-10-yl]-N-{3-nitro-4-[(oxan-4-ylmethyl)amino]benzenesulfonyl}-4-{2-[(2S)-2-phenylpyrrolidin-1-yl]-7-azaspiro[3.5]nonan-7-yl}benzamide hydrochloride]	0.161
COc1ccccc1[C@@H]1CCCN1C1CC2(CCN(c3ccc(C(=O)NS(=O)(=O)c4ccc(NCC5CCOCC5)c([N+](=O)[O-])c4)c(N4c5cc6cc[nH]c6nc5O[C@@H]5COC[C@H]54)c3)CC2)C1 [Example 16, 2-[(11R,15S)-13,16-dioxa-2,4,10-triazatetracyclo[7.7.0.0^{3,7}.0^{11,15}]hexadeca-1(9),2,5,7-tetraen-10-yl]-4-{2-[(2S)-2-(2-methoxyphenyl)pyrrolidin-1-yl]-7-azaspiro[3.5]nonan-7-yl}-N-{3-nitro-4-[(oxan-4-ylmethyl)amino]benzenesulfonyl}benzamide]	0.09
O=C(NS(=O)(=O)c1ccc(NCC2CCOCC2)c([N+](=O)[O-])c1)c1ccc(N2CCC3(CC2)CC(N2CCC[C@H]2c2cccc(Cl)c2)C3)cc1N1c2cc3cc[nH]c3nc2O[C@@H]2COC[C@H]21 [Example 33, 4-{2-[(2S)-2-(3-chlorophenyl)pyrrolidin-1-yl]-7-azaspiro[3.5]nonan-7-yl}-2-[(11R,15S)-13,16-dioxa-2,4,10-triazatetracyclo[7.7.0.0^{3,7}.0^{11,15}]hexadeca-1(9),2,5,7-tetraen-10-yl]-N-{3-nitro-4-[(oxan-4-ylmethyl)amino]benzenesulfonyl}benzamide]	1.42
CC(C)Cc1ccccc1[C@@H]1CCCN1C1CC2(CCN(c3ccc(C(=O)NS(=O)(=O)c4ccc(NCC5CCOCC5)c([N+](=O)[O-])c4)c(N4c5cc6cc[nH]c6nc5O[C@@H]5COC[C@H]54)c3)CC2)C1 [Example 35, 4-(2-((S)-2-(2-isobutylphenyl)pyrrolidin-1-yl)-7-azaspiro[3.5]nonan-7-yl)-N-((3-nitro-4-(((tetrahydro-2H-pyran-4-yl)methyl)amino)phenyl)sulfonyl)-2-((5aR,8aS)-5a,6,8,8a-tetrahydrofuro[3,4-b]pyrrolo[3′,2′:5,6]pyrido[3,2-e][1,4]oxazin-5(1H)-yl)benzamide]	0.58
CS(=O)(=O)Nc1ccccc1[C@@H]1CCCN1C1CC2(CCN(c3ccc(C(=O)NS(=O)(=O)c4ccc(NCC5CCOCC5)c([N+](=O)[O-])c4)c(N4c5cc6cc[nH]c6nc5O[C@@H]5COC[C@H]54)c3)CC2)C1 [Example 25, 2-[(11R,15S)-13,16-dioxa-2,4,10-triazatetracyclo[7.7.0.0^{3,7}.0^{11,15}]hexadeca-1(9),2,5,7-tetraen-10-yl]-4-{2-[(2S)-2-(2-methanesulfonamidophenyl)pyrrolidin-1-yl]-7-azaspiro[3.5]nonan-7-yl}-N-{3-nitro-4-[(oxan-4-ylmethyl)amino]benzenesulfonyl}benzamide]	14.8
CC1(C)C[C@@H](c2ccccc2[C@@H]2CCCN2C2CC3(CCN(c4ccc(C(=O)NS(=O)(=O)c5ccc(NCC6CCOCC6)c([N+](=O)[O-])c5)c(N5c6cc7cc[nH]c7nc6O[C@@H]6COC[C@H]65)c4)CC3)C2)CCO1 [Example 31, 4-{2-[(2S)-2-{2-[(4S)-2,2-dimethyloxan-4-yl]phenyl}pyrrolidin-1-yl]-7-azaspiro[3.5]nonan-7-yl}-2-[(11R,15S)-13,16-dioxa-2,4,10-triazatetracyclo[7.7.0.0^{3,7}.0^{11,15}]hexadeca-1(9),2,5,7-tetraen-10-yl]-N-{3-nitro-4-[(oxan-4-ylmethyl)amino]benzenesulfonyl}benzamide]	30.7
O=C(NS(=O)(=O)c1ccc(NCC2CCOCC2)c([N+](=O)[O-])c1)c1ccc(N2CCC3(CC2)CC(N2CCC[C@H]2c2ccc(Cl)cc2)C3)cc1N1c2cc3cc[nH]c3nc2O[C@@H]2COC[C@H]21 [Example 34, 4-{2-[(2S)-2-(4-chlorophenyl)pyrrolidin-1-yl]-7-azaspiro[3.5]nonan-7-yl}-2-[(11R,15S)-13,16-dioxa-2,4,10-triazatetracyclo[7.7.0.0^{3,7}.0^{11,15}]hexadeca-1(9),2,5,7-tetraen-10-yl]-N-{3-nitro-4-[(oxan-4-ylmethyl)amino]benzenesulfonyl}benzamide]	3.5
CC(C)S(=O)(=O)c1ccccc1[C@@H]1CCCN1C1CC2(CCN(c3ccc(C(=O)NS(=O)(=O)c4ccc(NCC5CCOCC5)c([N+](=O)[O-])c4)c(N4c5cc6cc[nH]c6nc5O[C@@H]5COC[C@H]54)c3)CC2)C1 [Example 28, 2-[(11R,15S)-13,16-dioxa-2,4,10-triazatetracyclo[7.7.0.0^{3,7}.0^{11,15}]hexadeca-1(9),2,5,7-tetraen-10-yl]-N-{3-nitro-4-[(oxan-4-ylmethyl)amino]benzenesulfonyl}-4-{2-[(2S)-2-[2-(propane-2-sulfonyl)phenyl]pyrrolidin-1-yl]-7-azaspiro[3.5]nonan-7-yl}benzamide]	31.2
CC1(C)C[C@H](c2ccccc2[C@@H]2CCCN2C2CC3(CCN(c4ccc(C(=O)NS(=O)(=O)c5ccc(NCC6CCOCC6)c([N+](=O)[O-])c5)c(N5c6cc7cc[nH]c7nc6O[C@@H]6COC[C@H]65)c4)CC3)C2)CCO1 [Example 32, 4-{2-[(2S)-2-{2-[(4R)-2,2-dimethyloxan-4-yl]phenyl}pyrrolidin-1-yl]-7-azaspiro[3.5]nonan-7-yl}-2-[(11R,15S)-13,16-dioxa-2,4,10-triazatetracyclo[7.7.0.0^{3,7}.0^{11,15}]hexadeca-1(9),2,5,7-tetraen-10-yl]-N-{3-nitro-4-[(oxan-4-ylmethyl)amino]benzenesulfonyl}benzamide]	15.8
O=C(NS(=O)(=O)c1ccc(NCC2CCOCC2)c([N+](=O)[O-])c1)c1ccc(N2CCC3(CC2)CC(N2CCC[C@H]2c2ccccc2-c2cccnc2)C3)cc1N1c2cc3cc[nH]c3nc2O[C@@H]2COC[C@H]21 [Example 13, 2-[(11R,15S)-13,16-dioxa-2,4,10-triazatetracyclo[7.7.0.0^{3,7}.0^{11,15}]hexadeca-1(9),2,5,7-tetraen-10-yl]-N-{3-nitro-4-[(oxan-4-ylmethyl)amino]benzenesulfonyl}-4-{2-[(2S)-2-[2-(pyridin-3-yl)phenyl]pyrrolidin-1-yl]-7-azaspiro[3.5]nonan-7-yl}benzamide hydrochloride]	2.42
O=C(NS(=O)(=O)c1ccc(NCC2CCOCC2)c([N+](=O)[O-])c1)c1ccc(N2CCC3(CC2)CC(N2CCC[C@H]2c2ccccc2C2CCC2)C3)cc1N1c2cc3cc[nH]c3nc2O[C@@H]2COC[C@H]21 [Example 22, 4-{2-[(2S)-2-(2-cyclobutylphenyl)pyrrolidin-1-yl]-7-azaspiro[3.5]nonan-7-yl}-2-[(11R,15S)-13,16-dioxa-2,4,10-triazatetracyclo[7.7.0.0^{3,7}.0^{11,15}]hexadeca-1(9),2,5,7-tetraen-10-yl]-N-{3-nitro-4-[(oxan-4-ylmethyl)amino]benzenesulfonyl}benzamide]	0.1
